Data on 23 compounds can be found in patent US9096624B2 (OSI Pharmaceuticals, LLC, priority 2009, dated 2015).

Structures can show the parent of a compound that is named as a salt. Some results are limits rather than exact numbers.

T1 sequence (Q05397 whole entry): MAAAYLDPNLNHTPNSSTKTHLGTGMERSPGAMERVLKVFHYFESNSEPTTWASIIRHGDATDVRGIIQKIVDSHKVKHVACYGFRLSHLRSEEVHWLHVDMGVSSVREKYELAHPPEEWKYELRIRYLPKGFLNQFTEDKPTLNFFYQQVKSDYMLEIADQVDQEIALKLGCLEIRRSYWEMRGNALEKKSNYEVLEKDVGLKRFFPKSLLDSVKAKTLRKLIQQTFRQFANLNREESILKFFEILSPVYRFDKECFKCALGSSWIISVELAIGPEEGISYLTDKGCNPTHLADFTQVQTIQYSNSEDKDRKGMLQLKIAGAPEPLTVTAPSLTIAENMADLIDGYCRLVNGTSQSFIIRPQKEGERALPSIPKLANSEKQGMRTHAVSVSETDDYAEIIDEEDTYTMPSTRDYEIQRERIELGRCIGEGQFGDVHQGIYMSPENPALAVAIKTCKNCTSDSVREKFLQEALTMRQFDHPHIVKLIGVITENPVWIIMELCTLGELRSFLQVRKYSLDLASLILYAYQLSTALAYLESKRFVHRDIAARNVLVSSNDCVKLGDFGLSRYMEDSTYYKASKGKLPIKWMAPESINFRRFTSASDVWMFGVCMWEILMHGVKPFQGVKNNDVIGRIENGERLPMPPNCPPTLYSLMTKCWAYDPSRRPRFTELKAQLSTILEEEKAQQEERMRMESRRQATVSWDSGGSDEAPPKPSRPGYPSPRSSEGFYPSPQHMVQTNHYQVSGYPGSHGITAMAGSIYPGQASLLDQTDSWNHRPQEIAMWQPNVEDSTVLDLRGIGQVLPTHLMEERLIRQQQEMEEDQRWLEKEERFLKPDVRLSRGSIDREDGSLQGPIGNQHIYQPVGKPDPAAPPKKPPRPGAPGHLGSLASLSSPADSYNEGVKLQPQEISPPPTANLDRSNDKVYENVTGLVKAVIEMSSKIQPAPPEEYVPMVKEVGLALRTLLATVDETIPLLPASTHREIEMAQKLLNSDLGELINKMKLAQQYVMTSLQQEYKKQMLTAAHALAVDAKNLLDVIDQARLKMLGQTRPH

The first experiment addresses T1, FAK (Homo sapiens, UniProt Q05397). Nature of the experiment: biochemical.
Conditions: not given
In the case of `CCOP(=O)(Cc1ccc(Nc2ncc(C(F)(F)F)c(Nc3ccccc3C(=O)N3CCN(C)CC3)n2)c(OC)c1)OCC` [Example 179, Diethyl (3-methoxy-4-{[4-({2-[(4-methylpiperazin-1-yl)carbonyl]phenyl}amino)-5-(trifluoromethyl)pyrimidin-2-yl]amino}benzyl)phosphonate], the 50% inhibitory concentration (IC50) (in general, the concentration needed to halve the response being measured) was below 1 µM. Take `CCOP(=O)(Cc1ccc(Nc2ncc(C(F)(F)F)c(Nc3ccc(-c4cnn(CCN(CC)CC)c4)cc3C(=O)NC)n2)cc1)OCC` [Example 180, Diethyl (4-{[4-{[4-{1-[2-(diethylamino)ethyl]-1H-pyrazol-4-yl}-2-(methylcarbamoyl)phenyl]amino}-5-(trifluoromethyl)pyrimidin-2-yl]amino}benzyl)phosphonate]: the half-maximal inhibitory concentration (IC50) was below 1 µM.

Compound `CCOP(=O)(Cc1ccc(Nc2ncc(C(F)(F)F)c(Nc3ccc(-c4nn[nH]n4)c4c3C(=O)N(C)C4)n2)cc1)OCC` [Example 181, Diethyl (4-{[4-{[2-methyl-3-oxo-7-(2H-tetrazol-5-yl)-2,3-dihydro-1H-isoindol-4-yl]amino}-5-(trifluoromethyl)pyrimidin-2-yl]amino}benzyl)phosphonate] had an IC50 below 1 µM.

`CCOP(=O)(Cc1ccc(Nc2ncc(C(F)(F)F)c(Nc3cccc4c3C(=O)N(O)C4)n2)c(OC)c1)OCC` [Example 186, Diethyl [4-({4-[(2-hydroxy-3-oxo-2,3-dihydro-1H-isoindol-4-yl)amino]-5-(trifluoromethyl)pyrimidin-2-yl}amino)-3-methoxybenzyl]phosphonate trifluoroacetate] registered an IC50 below 1 µM. Consider `CCOP(=O)(Cc1ccc(Nc2ncc(C(F)(F)F)c(Nc3cccc4c3C(=O)N(OC)C4)n2)c(OC)c1)OCC` [Example 187, Diethyl [3-methoxy-4-({4-[(2-methoxy-3-oxo-2,3-dihydro-1H-isoindol-4-yl)amino]-5-(trifluoromethyl)pyrimidin-2-yl}amino)benzyl]phosphonate trifluoroacetate], for which the half-maximal inhibitory concentration (IC50) is below 1 µM. As to `CCOP(C)(=O)Cc1ccc(Nc2ncc(C(F)(F)F)c(Nc3ccc([C@H]4CC[C@@](C)(O)CC4)c4c3C(=O)N(C)C4)n2)c(OC)c1` (stereo partly drawn) [Example 200, Ethyl (4-{[4-{[7-(cis-4-hydroxy-4-methylcyclohexyl)-2-methyl-3-oxo-2,3-dihydro-1H-isoindol-4-yl]amino}-5-(trifluoromethyl)pyrimidin-2-yl]amino}-3-methoxybenzyl)methylphosphinate], the IC50 was below 1 µM. On the same count and under the same terms, the result for `CCOP(=O)(Cc1ccc(Nc2ncc(C(F)(F)F)c(Nc3ccc(OC)c4c3C(=O)N(C)C4)n2)cc1)OCC` [Example 205, Diethyl [4-({4-[(7-methoxy-2-methyl-3-oxo-2,3-dihydro-1H-isoindol-4-yl)amino]-5-(trifluoromethyl)pyrimidin-2-yl}amino)benzyl]phosphonate] reads below 1 µM; that for `CCOc1ccc(Nc2nc(Nc3ccc(CP(=O)(OCC)OCC)cc3OC)ncc2C(F)(F)F)c2c1CN(C)C2=O` [Example 210, Diethyl [4-({4-[(7-ethoxy-2-methyl-3-oxo-2,3-dihydro-1H-isoindol-4-yl)amino]-5-(trifluoromethyl)pyrimidin-2-yl}amino)-3-methoxybenzyl]phosphonate], below 1 µM. Compound `CCOP(=O)(Cc1ccc(Nc2ncc(C(F)(F)F)c(Nc3ccc(OC(C)C)c4c3C(=O)N(C)C4)n2)c(OC)c1)OCC` [Example 211, Diethyl (3-methoxy-4-{[4-{[2-methyl-3-oxo-7-(propan-2-yloxy)-2,3-dihydro-1H-isoindol-4-yl]amino}-5-(trifluoromethyl)pyrimidin-2-yl]amino}benzyl)phosphonate] displayed an IC50 below 1 µM. Take `CCOP(=O)(Cc1ccc(Nc2ncc(C(F)(F)F)c(Nc3ccc(N4CCS(=O)(=O)CC4)c4c3C(=O)N(C)C4)n2)cc1)OCC` [Example 212, Diethyl (4-{[4-{[7-(1,1-dioxidothiomorpholin-4-yl)-2-methyl-3-oxo-2,3-dihydro-1H-isoindol-4-yl]amino}-5-(trifluoromethyl)pyrimidin-2-yl]amino}benzyl)phosphonate]: the IC50 is below 1 µM. Still for that read-out and setting: the result for `CCOP(=O)(Cc1ccc(Nc2ncc(C(F)(F)F)c(Nc3ccc(N4CCOCC4)c4c3C(=O)N(C)C4)n2)c(OC)c1)OCC` [Example 215, Diethyl (3-methoxy-4-{[4-{[2-methyl-7-(morpholin-4-yl)-3-oxo-2,3-dihydro-1H-isoindol-4-yl]amino}-5-(trifluoromethyl)pyrimidin-2-yl]amino}benzyl)phosphonate] reads below 1 µM. Still for that read-out and setting: the figure for `CCOP(=O)(Cc1ccc(Nc2ncc(C(F)(F)F)c(Nc3ccc(N4CCN(C)CC4)c4c3C(=O)N(C)C4)n2)c(OC)c1)OCC` [Example 224, Diethyl (3-methoxy-4-{[4-{[2-methyl-7-(4-methylpiperazin-1-yl)-3-oxo-2,3-dihydro-1H-isoindol-4-yl]amino}-5-(trifluoromethyl)pyrimidin-2-yl]amino}benzyl)phosphonate] is below 1 µM. On the same count and under the same terms, the figure for `CCOP(=O)(Cc1ccc(Nc2ncc(C(F)(F)F)c(Nc3ccc(N4CCN(CC(=O)OC(C)(C)C)CC4)c4c3C(=O)N(C)C4)n2)cc1)OCC` [Example 225, tert-Butyl [4-(7-{[2-({4-[(diethoxyphosphoryl)methyl]phenyl}amino)-5-(trifluoromethyl)pyrimidin-4-yl]amino}-2-methyl-1-oxo-2,3-dihydro-1H-isoindol-4-yl)piperazin-1-yl]acetate] is below 1 µM. `CCOP(=O)(Cc1ccc(Nc2ncc(C(F)(F)F)c(Nc3ccc(N4CCN(CC(=O)OC(C)(C)C)CC4)c4c3C(=O)N(C)C4)n2)c(OC)c1)OCC` [Example 226, tert-Butyl [4-(7-{[2-({4-[(diethoxyphosphoryl)methyl]-2-methoxyphenyl}amino)-5-(trifluoromethyl)pyrimidin-4-yl]amino}-2-methyl-1-oxo-2,3-dihydro-1H-isoindol-4-yl)piperazin-1-yl]acetate] gave a 50% inhibitory concentration (IC50) below 1 µM. As to `CCOP(=O)(Cc1ccc(Nc2ncc(C(F)(F)F)c(Nc3ccc(N4CC(O)C4)c4c3C(=O)N(C)C4)n2)cc1)OCC` [Example 227, Diethyl (4-{[4-{[7-(3-hydroxyazetidin-1-yl)-2-methyl-3-oxo-2,3-dihydro-1H-isoindol-4-yl]amino}-5-(trifluoromethyl)pyrimidin-2-yl]amino}benzyl)phosphonate], the IC50 was below 1 µM. On the same count and under the same terms, the figure for `CCOP(=O)(Cc1ccc(Nc2ncc(C(F)(F)F)c(Nc3ccc([C@H]4CC[C@H](OP(=O)(O)O)CC4)c4c3C(=O)N(C)C4)n2)c(OC)c1)OCC` [Example 228, Diethyl (3-methoxy-4-{[4-({2-methyl-3-oxo-7-[trans-4-(phosphonooxy)cyclohexyl]-2,3-dihydro-1H-isoindol-4-yl}amino)-5-(trifluoromethyl)pyrimidin-2-yl]amino}benzyl)phosphonate] is below 1 µM; for `CCOP(=O)(Cc1ccc(Nc2ncc(C(F)(F)F)c(Nc3ccc(C4=CCNCC4)c4c3C(=O)N(C)C4)n2)cc1)OCC` [Example 246, Diethyl (4-{[4-{[2-methyl-3-oxo-7-(1,2,3,6-tetrahydropyridin-4-yl)-2,3-dihydro-1H-isoindol-4-yl]amino}-5-(trifluoromethyl)pyrimidin-2-yl]amino}benzyl)phosphonate] it is below 1 µM; for `CCOP(=O)(Cc1ccc(Nc2ncc(C(F)(F)F)c(Nc3ccc(C4=CCN(C)CC4)c4c3C(=O)N(C)C4)n2)cc1)OCC` [Example 248, Diethyl (4-{[4-{[2-methyl-7-(1-methyl-1,2,3,6-tetrahydropyridin-4-yl)-3-oxo-2,3-dihydro-1H-isoindol-4-yl]amino}-5-(trifluoromethyl)pyrimidin-2-yl]amino}benzyl)phosphonate] it is below 1 µM. On the same count and under the same terms, the figure for `CCOP(=O)(O)Cc1ccc(Nc2ncc(C(F)(F)F)c(Nc3ccc(N4CCN(C)CC4)c4c3C(=O)N(C)C4)n2)cc1` [Example 249, Ethyl hydrogen (4-{[4-{[2-methyl-7-(4-methylpiperazin-1-yl)-3-oxo-2,3-dihydro-1H-isoindol-4-yl]amino}-5-(trifluoromethyl)pyrimidin-2-yl]amino}benzyl) phosphonate] is below 1 µM. Turning to `CCOP(=O)(Cc1ccc(Nc2ncc(C(F)(F)F)c(Nc3ccc(N4CCN(CC(=O)O)CC4)c4c3C(=O)N(C)C4)n2)c(OC)c1)OCC` [Example 252, [4-(7-{[2-({4-[(Diethoxyphosphoryl)methyl]-2-methoxyphenyl}amino)-5-(trifluoromethyl)pyrimidin-4-yl]amino}-2-methyl-1-oxo-2,3-dihydro-1H-isoindol-4-yl)piperazin-1-yl]acetic acid], the IC50 is below 1 µM. With `CCOP(=O)(O)Cc1ccc(Nc2ncc(C(F)(F)F)c(Nc3ccc(N4CCN(C)CC4)c4c3C(=O)N(C)C4)n2)c(OC)c1` [Example 254, Ethyl hydrogen (3-methoxy-4-{[4-{[2-methyl-7-(4-methylpiperazin-1-yl)-3-oxo-2,3-dihydro-1H-isoindol-4-yl]amino}-5-(trifluoromethyl)pyrimidin-2-yl]amino}benzyl)phosphonate], the IC50 was below 1 µM.

Another experiment has as its target T1, FAK. Nature of the experiment: Cell-based capture ELISA for inhibition of FAK autophosphorylation [pY397] in MiaPaCa2 cells. The note with it: MIA-PaCa2 cells, + 50% mouse plasma (Table 2); read-out: Mean FAK Cell Mechanistic IC50 + 50% mP MIA-PaCa2. Here is the method: Cell-Based Assays for Inhibition of FAK Autophosphorylation: MiaPaCa2 and U87MG
ELISA kit from Invitrogen (KHO0441).
Reagents Provided in Biosource FAK [pY397]
The cells were then suspended in cell assay medium.
In general terms: An ELISA detects its analyte on a solid surface through an enzyme-linked reagent.
For `CCOP(=O)(Cc1ccc(Nc2ncc(C(F)(F)F)c(Nc3ccc(-c4cnn(C5CC(O)C5)c4)c4c3C(=O)N(C)C4)n2)c(OC)c1)OCC` (centres unmarked) [Example 74, Diethyl (4-{[4-({7-[1-(3-hydroxycyclobutyl)-1H-pyrazol-4-yl]-2-methyl-3-oxo-2,3-dihydro-1H-isoindol-4-yl}amino)-5-(trifluoromethyl)pyrimidin-2-yl]amino}-3-methoxybenzyl)phosphonate], the half-maximal inhibitory concentration (IC50) is below 1 µM.

Still in this experiment, the particulars now being: read-out: Mean FAK Cell Mechanistic IC50 + 50% mP MIA-PaCa2; MIA-PaCa2 cells, + 50% mouse plasma (Table 3).
On to `CCOP(=O)(Cc1ccc(Nc2ncc(C(F)(F)F)c(Nc3ccc(-c4cnn(CC(C)(C)O)c4)c4c3C(=O)N(C)C4)n2)c(OC)c1)OCC` [Example 98, Diethyl (4-{[4-({7-[1-(2-hydroxy-2-methylpropyl)-1H-pyrazol-4-yl]-2-methyl-3-oxo-2,3-dihydro-1H-isoindol-4-yl}amino)-5-(trifluoromethyl)pyrimidin-2-yl]amino}-3-methoxybenzyl)phosphonate], for which the IC50 is below 1 µM.
